Measurements taken from US20240409585A1, “MACROCYCLIC IMMUNOMODULATORS” (priority 2021, published 2024).
Bridge positions count the residues as written; N and C are the ends. Square brackets hold non-standard residues; d marks the D form. Peptide text beside a SMILES is read from it. * marks the point of attachment. ξ: configuration not given here. Phe(4-COOH) = N[C@@H](Cc1ccc(C(=O)O)cc1)C(=O)O; Bip = N[C@@H](Cc1ccc(-c2ccccc2)cc1)C(=O)O; Phe(3-OMe) = COc1cccc(C[C@H](N)C(=O)O)c1; Phe(3-Me) = Cc1cccc(C[C@H](N)C(=O)O)c1; Val(3-OH) = CC(C)(O)[C@H](N)C(=O)O; Cha = N[C@@H](CC1CCCCC1)C(=O)O; Cit = NC(=O)NCCC[C@H](N)C(=O)O; Ile(3ξ) = CCC(C)[C@H](N)C(=O)O; Thr(3ξ) = CC(O)[C@H](N)C(=O)O; Carboxymethyl = O=C(O)C*; NMeA = CN[C@@H](C)C(=O)O; Orn = NCCC[C@H](N)C(=O)O; Dab = NCC[C@H](N)C(=O)O; Dap = NC[C@H](N)C(=O)O

The molecules below were run against T1, PE-labeled human PD-L1-Ig binding to Jurkat cell line over-expressing human PD-1 (Jurkat-PD-1) (Homo sapiens, UniProt Q15116) (assay: Jurkat-PD-1 Cell Binding High-Content Screening Assay (CBA): Method 1). Conditions: Jurkat-hPD-1 cells, PE-labeled PD-L1-Ig 20 nM final; read-out: Jurkat HPDL1 PD1 IC50 (uM) (Method 1).
T1 construct: expressed in transfected cells; host or cells: Jurkat
T1 sequence (Q15116 25-288): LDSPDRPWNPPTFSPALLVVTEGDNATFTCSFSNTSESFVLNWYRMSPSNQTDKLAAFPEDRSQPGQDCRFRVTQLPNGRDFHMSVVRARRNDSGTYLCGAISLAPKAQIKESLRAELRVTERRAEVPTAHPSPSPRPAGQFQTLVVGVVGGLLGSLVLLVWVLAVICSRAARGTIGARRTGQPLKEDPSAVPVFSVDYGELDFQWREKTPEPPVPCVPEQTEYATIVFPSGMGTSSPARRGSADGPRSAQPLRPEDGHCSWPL
CC(C)C[C@H]1NC(=O)[C@H](C)N(C)C(=O)[C@H](CCCN)NC(=O)[C@H](Cc2ccc(-c3ccccc3)cc2)NC(=O)[C@H](C(C)C)NC(=O)[C@H](Cc2c[nH]c3ccccc23)NC(=O)[C@H](CC(=O)O)NC(=O)[C@H](Cc2ccc(O)cc2)NC(=O)[C@H](CC(N)=O)NC(=O)CSC[C@@H](C(=O)N[C@@H](C)C(N)=O)NC(=O)[C@H]([C@@H](C)O)NC(=O)[C@H](C(C)C)NC(=O)[C@H](CC2CCCCC2)NC(=O)[C@H](CCN)NC1=O [Compound 1278] ({CH2CO}-NYDWV[Bip][Orn][NMeA][dL][Dab][Cha]VTCA-NH2; thioether N-14) was tested, and the IC50 was 0.01 µM.
With CCC(C)[C@@H]1NC(=O)[C@H](Cc2ccc(-c3ccccc3)cc2)NC(=O)[C@H](C(C)C)NC(=O)[C@H](Cc2c[nH]c3ccccc23)NC(=O)[C@H](CC(=O)O)NC(=O)[C@H](Cc2ccc(C(=O)O)cc2)NC(=O)[C@H](Cc2ccc(OCC(=O)O)cc2)NC(=O)CSC[C@@H](C(=O)NCC(=O)N[C@@H](CN)C(=O)O)NC(=O)[C@H](C(C)O)NC(=O)[C@H](C(C)C)NC(=O)[C@H](CC2CCCCC2)NC(=O)[C@H](CC(N)=O)NC(=O)[C@@H](CC(C)C)NC(=O)[C@H](C)N(C)C1=O (stereo partly drawn) [Compound 2005] ({CH2CO}-Y(Carboxymethyl)[Phe(4-COOH)]DWV[Bip][Ile(3ξ)][NMeA][dL]N[Cha]V[Thr(3ξ)]CG[Dap]-OH; thioether N-14) the IC50 was 0.02 µM.
Work on Cc1cccc(C[C@@H]2NC(=O)[C@H](CC(=O)O)NC(=O)[C@H](Cc3ccc(O)cc3)NC(=O)[C@H](CC(N)=O)NC(=O)CSC[C@@H](C(=O)N[C@H](C)C(N)=O)NC(=O)[C@H]([C@@H](C)O)NC(=O)[C@H](C(C)C)NC(=O)[C@H](CC3CCCCC3)NC(=O)[C@H](CCN)NC(=O)[C@@H](CC(C)C)NC(=O)[C@H](C)N(C)C(=O)[C@H](CCCNC(N)=O)NC(=O)[C@H](Cc3ccc(-c4ccccc4)cc3)NC(=O)[C@H](C(C)(C)O)NC2=O)c1 [Compound 1704] ({CH2CO}-NYD[Phe(3-Me)][Val(3-OH)][Bip][Cit][NMeA][dL][Dab][Cha]VTC[dA]-NH2; thioether N-14) yielded an IC50 of 0.15 µM.
Molecule COc1cccc(C[C@@H]2NC(=O)[C@H](CC(=O)O)NC(=O)[C@H](Cc3ccc(O)cc3)NC(=O)[C@H](Cc3ccccc3)NC(=O)CSC[C@@H](C(=O)NCC(N)=O)NC(=O)[C@H](CO)NC(=O)[C@H](C(C)C)NC(=O)[C@H](CC(C)C)NC(=O)[C@H](CC(N)=O)NC(=O)[C@@H](CC(C)C)NC(=O)[C@H](C)N(C)C(=O)[C@H](C(C)C)NC(=O)[C@H](Cc3ccc(-c4ccccc4)cc3)NC(=O)[C@H](CC(C)C)NC2=O)c1 [Compound 1516] ({CH2CO}-FYD[Phe(3-OMe)]L[Bip]V[NMeA][dL]NLVSCG-NH2; thioether N-14) has an IC50 of 0.02 µM.
For CC[C@H](C)[C@@H]1NC(=O)[C@H](Cc2ccc(-c3ccccc3)cc2)NC(=O)[C@H](C(C)C)NC(=O)[C@H](Cc2c[nH]c3ccccc23)NC(=O)[C@H](CC(=O)O)NC(=O)[C@H](Cc2ccc(O)cc2)NC(=O)[C@H](Cc2ccccc2)NC(=O)CSC[C@@H](C(=O)N[C@@H](C)C(N)=O)NC(=O)[C@H]([C@@H](C)O)NC(=O)[C@H](C(C)C)NC(=O)[C@H](CC(C)C)NC(=O)[C@H](CCCNC(=N)N)NC(=O)[C@@H](CC(C)C)NC(=O)[C@H](C)N(C)C1=O [Compound 1491] ({CH2CO}-FYDWV[Bip]I[NMeA][dL]RLVTCA-NH2; thioether N-14), the IC50 was 0.09 µM.
Cc1cccc(C[C@@H]2NC(=O)[C@H](CC(=O)O)NC(=O)[C@H](Cc3ccc(OCC(=O)O)cc3)NC(=O)[C@H](CC(N)=O)NC(=O)CSC[C@@H](C(N)=O)NC(=O)[C@H](CCC(=O)O)NC(=O)[C@H](C(C)C)NC(=O)[C@H](CC3CCCCC3)NC(=O)[C@H](CCN)NC(=O)[C@@H](CC(C)C)NC(=O)[C@H](C)N(C)C(=O)[C@H](Cc3ccc(OCC(=O)O)cc3)NC(=O)[C@H](Cc3ccc(-c4ccccc4)cc3)NC(=O)[C@H](Cc3ccc(OCC(=O)O)cc3)NC2=O)c1 [Compound 1667] ({CH2CO}-NY(Carboxymethyl)D[Phe(3-Me)]Y(Carboxymethyl)[Bip]Y(Carboxymethyl)[NMeA][dL][Dab][Cha]VEC-NH2; thioether N-14) showed an IC50 of 0.11 µM.
